The IC50 is the concentration that gives 50% inhibition.

What all share (assay type): cell-based
Experiment [1] deals with T1, Short transient receptor potential channel 4 (Mus musculus, UniProt Q9QUQ5).
T1 sequence (Q9QUQ5 whole entry): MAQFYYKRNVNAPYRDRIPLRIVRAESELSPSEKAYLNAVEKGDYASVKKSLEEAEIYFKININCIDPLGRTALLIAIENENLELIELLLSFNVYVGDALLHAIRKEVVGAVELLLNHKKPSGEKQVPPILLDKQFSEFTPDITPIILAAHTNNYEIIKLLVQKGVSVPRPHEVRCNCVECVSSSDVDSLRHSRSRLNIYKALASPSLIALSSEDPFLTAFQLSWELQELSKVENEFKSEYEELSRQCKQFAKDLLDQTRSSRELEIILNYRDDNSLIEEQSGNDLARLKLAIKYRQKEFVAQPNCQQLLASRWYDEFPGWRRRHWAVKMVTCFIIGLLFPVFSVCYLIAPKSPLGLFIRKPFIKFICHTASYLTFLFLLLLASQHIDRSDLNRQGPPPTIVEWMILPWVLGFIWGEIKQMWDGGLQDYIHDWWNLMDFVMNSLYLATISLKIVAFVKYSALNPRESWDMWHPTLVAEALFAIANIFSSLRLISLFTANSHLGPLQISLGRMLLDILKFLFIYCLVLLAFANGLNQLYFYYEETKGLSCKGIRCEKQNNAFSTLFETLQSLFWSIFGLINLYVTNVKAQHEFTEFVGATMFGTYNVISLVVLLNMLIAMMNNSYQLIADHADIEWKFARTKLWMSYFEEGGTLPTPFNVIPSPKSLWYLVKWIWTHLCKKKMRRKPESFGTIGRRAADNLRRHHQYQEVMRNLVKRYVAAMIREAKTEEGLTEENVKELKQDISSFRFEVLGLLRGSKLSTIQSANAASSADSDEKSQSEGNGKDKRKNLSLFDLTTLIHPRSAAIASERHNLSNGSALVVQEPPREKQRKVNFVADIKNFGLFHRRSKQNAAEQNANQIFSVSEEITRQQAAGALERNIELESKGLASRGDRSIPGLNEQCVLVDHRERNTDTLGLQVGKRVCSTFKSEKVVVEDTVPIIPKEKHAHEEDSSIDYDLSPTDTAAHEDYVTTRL
Briefly: Inhibition of mouse TRPC4 beta expressed in HEK293 cells co-expressing mu-opioid receptor assessed as reduction in DAMGO-induced membrane potential by FMP-2 dye based assay.

The target of experiment [2] is T2, Short transient receptor potential channel 5 (Mus musculus, UniProt Q9QX29).
T2 sequence (Q9QX29 whole entry): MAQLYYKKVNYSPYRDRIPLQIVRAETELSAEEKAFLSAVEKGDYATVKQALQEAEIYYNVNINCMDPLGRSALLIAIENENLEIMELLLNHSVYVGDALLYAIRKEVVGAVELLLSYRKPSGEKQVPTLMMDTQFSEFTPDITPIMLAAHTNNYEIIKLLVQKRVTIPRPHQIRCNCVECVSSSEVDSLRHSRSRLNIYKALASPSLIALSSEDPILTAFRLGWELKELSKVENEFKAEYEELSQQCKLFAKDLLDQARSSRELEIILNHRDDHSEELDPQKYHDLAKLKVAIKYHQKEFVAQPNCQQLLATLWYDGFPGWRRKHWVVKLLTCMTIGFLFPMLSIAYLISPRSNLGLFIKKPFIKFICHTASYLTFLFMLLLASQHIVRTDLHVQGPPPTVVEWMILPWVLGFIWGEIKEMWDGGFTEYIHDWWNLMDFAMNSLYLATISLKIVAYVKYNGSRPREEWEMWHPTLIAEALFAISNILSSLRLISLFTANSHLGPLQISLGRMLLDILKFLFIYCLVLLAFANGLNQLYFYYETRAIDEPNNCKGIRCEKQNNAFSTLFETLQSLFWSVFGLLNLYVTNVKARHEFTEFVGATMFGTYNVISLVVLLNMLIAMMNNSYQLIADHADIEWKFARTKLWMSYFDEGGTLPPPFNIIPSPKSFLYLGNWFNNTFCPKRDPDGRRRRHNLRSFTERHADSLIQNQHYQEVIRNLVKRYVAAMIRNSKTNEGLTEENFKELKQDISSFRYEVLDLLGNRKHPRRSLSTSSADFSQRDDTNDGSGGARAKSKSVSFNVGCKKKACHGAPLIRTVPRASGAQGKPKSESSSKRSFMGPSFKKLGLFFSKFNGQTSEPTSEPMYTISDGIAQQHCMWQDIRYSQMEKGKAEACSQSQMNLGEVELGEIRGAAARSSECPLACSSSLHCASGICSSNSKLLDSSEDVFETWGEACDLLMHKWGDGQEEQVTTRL
Briefly: Inhibition of mouse TRPC5 expressed in thapsigargin treated HEK293/TREx cells assessed as reduction in intracellular calcium level in presence of GPCR agonist by fluorescence method. Background: A change in cytosolic calcium serves as a functional read-out for many receptors and channels.

Experiment [3] can be described thus: Selectivity ratio of IC50 for YFP-tagged human TRPC6 expressed in thapsigargin treated HEK293 cells to IC50 for mouse TRPC5 expressed in thapsigargin treated HEK293/TREx cells.
Experiment [4] concerns the target T3, Short transient receptor potential channel 3 (Homo sapiens, UniProt Q13507).
T3 sequence (Q13507 whole entry): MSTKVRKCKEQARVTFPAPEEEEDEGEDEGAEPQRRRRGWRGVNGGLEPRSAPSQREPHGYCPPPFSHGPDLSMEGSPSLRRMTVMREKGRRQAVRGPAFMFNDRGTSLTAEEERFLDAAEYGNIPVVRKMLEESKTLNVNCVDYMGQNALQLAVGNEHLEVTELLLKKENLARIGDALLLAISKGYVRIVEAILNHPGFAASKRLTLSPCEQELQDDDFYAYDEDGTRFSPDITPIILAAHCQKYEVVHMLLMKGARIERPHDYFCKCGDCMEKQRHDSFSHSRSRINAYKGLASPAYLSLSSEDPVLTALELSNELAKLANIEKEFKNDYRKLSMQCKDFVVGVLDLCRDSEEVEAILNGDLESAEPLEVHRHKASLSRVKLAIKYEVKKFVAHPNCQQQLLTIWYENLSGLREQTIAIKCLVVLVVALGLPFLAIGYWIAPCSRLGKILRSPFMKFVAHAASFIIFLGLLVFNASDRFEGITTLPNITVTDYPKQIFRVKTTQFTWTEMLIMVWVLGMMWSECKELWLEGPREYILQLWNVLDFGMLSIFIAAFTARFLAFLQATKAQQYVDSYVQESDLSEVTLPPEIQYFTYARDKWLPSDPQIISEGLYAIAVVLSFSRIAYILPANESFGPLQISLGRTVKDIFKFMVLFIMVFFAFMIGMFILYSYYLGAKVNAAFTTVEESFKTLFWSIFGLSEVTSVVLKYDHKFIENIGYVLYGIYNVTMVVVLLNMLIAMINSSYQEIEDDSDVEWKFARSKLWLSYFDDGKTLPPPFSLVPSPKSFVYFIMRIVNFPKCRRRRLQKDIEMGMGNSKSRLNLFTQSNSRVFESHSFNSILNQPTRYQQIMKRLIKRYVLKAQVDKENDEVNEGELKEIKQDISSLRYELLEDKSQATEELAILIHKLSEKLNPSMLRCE
Description: Inhibition of human TRPC3 expressed in CHO cells assessed as reduction in OAG-induced calcium influx after 10 mins by fluo-4/AM dye based FLIPR assay.

Take `c1ccc2[nH]c(NC34CC5CC(CC(C5)C3)C4)nc2c1`: the IC50 in experiment [1] is 10.2 µM.

In the case of `CC1CCN(c2nc3ccccc3[nH]2)CC1`, the IC50 in experiment [1] came out at 5.2 µM.

For the molecule `Clc1ccc(Cn2c(CN3CCCC3)nc3ccccc32)cc1` [CLEMIZOLE], the half-inhibitory concentration (IC50) in experiment [2] was found to be 1.1 µM. Besides, the Ratio IC50 in experiment [3] was 10.

Consider `c1ccc2[nH]c(N3CCCC3)nc2c1`, for which the IC50 in experiment [1] stood at 5.5 µM.

For `CC1CCCCN1c1nc2ccccc2[nH]1` (centres undefined), in experiment [1], the half-inhibitory concentration (IC50) turned out to be 4.3 µM.

Turning to `c1ccc2[nH]c(N3CCCCC3)nc2c1`, the IC50 in experiment [1] came out at 11 µM.

For the molecule `N#Cc1ccc(O[C@@H]2c3ccccc3C[C@H]2N2CCC[C@@H](N)C2)c(Cl)c1`, the half-maximal inhibitory concentration (IC50) in experiment [4] was 0.282 µM.

Take `CC1CCN(c2nc3cc(Cl)ccc3[nH]2)CC1`: in experiment [1], the IC50 was found to be 4.1 µM.
